# Where two headings read alike, the source gives them in different places.
# How the values were obtained:
# DLD-1 = assay: SRB cytotoxicity assay, DLD-1; format: cell-based; conditions: Homo sapiens, read-out: IC50 Cytotoxicity DLD-1
# Text: (§1) The cell lines MDA-MB-231 (No. TCHu227), A549 (No. TCHu150), and HepG2 (No. TCHu72) were obtained from the Cell Bank/Stem Cell Bank, Chinese Academy of Sciences (Shanghai, China). The cell lines DLD-1 (No. CC0507) and HCT116 (No. CC0506) were obtained from the Cell Bank of Cellcook Biotech Co., Ltd. (Guangzhou, China). Cell line HL-7702 (No. BNCC338358) was obtained from Bena Culture Collection (Zhengzhou, China).
# (§2) The human cancer cell lines MDA-MB-231 (breast adenocarcinoma), DLD-1 (colorectal adenocarcinoma), A549 (lung epithelial carcinoma), HCT116 (colorectal adenocarcinoma), HepG2 (hepatocellular carcinoma), and human hepatocyte HL-7702 were cultured in Dulbecco’s modified eagle medium (DMEM, Biological Industries, Beit Haemek, Israel) containing 10% (v/v) fetal bovine serum (FBS, Biological Industries, Beit Haemek, Israel) at 37 °C in a humidified incubator (ThermoFisher, Carlsbad, CA, USA) with a 5% CO2 atmosphere.
# HCT116 = assay: SRB cytotoxicity assay, HCT116; format: cell-based; conditions: Homo sapiens, read-out: IC50 Cytotoxicity HCT116
# Text: as §1, §2
# MDA-MB-231 = assay: SRB cytotoxicity assay, MDA-MB-231; format: cell-based; conditions: Homo sapiens, read-out: IC50 Cytotoxicity MDA-MB-231
# Text: as §1, §2
# DNA Topo I = molecular target: T1, DNA Topo I (Homo sapiens, UniProt P11387); assay: Topo I inhibition assay (DNA relaxation assay); format: biochemical; conditions: for IC50: DNA relaxation assay, pBR322, mean ± SD; for percentage inhibition on Topo I activity / inhibition at 400 µM: at 400 μM; for inhibition at 400 µM: read-out: percentage inhibition on Topo I activity
# T1 construct: purchased ThermoFisher, Waltham, MA, USA
# T1 sequence (P11387 1-765): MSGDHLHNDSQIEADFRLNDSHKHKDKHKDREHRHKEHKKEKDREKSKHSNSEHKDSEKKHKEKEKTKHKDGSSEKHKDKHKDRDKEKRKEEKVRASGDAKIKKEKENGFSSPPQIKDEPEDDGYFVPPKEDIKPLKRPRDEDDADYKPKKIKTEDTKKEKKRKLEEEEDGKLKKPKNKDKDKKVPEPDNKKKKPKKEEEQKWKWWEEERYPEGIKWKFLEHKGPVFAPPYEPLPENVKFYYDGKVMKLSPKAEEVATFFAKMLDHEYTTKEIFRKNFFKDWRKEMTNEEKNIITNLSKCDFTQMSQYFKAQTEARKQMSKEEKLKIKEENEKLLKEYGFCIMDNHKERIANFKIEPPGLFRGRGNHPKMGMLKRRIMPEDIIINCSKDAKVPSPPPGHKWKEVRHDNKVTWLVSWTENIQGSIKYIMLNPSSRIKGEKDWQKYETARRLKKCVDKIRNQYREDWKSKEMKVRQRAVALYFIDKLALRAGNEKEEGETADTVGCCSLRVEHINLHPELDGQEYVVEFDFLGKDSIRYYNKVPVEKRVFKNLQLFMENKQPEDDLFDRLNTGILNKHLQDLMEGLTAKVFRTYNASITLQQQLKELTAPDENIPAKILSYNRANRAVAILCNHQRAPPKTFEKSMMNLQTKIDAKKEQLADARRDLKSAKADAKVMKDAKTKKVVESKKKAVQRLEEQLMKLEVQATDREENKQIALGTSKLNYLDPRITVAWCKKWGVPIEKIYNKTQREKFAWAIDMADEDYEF
# Experimental: The DNA relaxation assay was adopted to investigate the compounds’ inhibitory activities on Topo I. Different concentrations of the compounds, dissolved and diluted in DMSO, were added into the relaxation buffer (50 mM Tris, pH 7.5, 50 mM KCl, 10 mM MgCl2, 0.1 mM EDTA, 0.5 Mm dithiothreitol, and 0.05 mg/mL bovine serum albumin) containing 0.2 U Topo I (ThermoFisher, Waltham, MA, USA) and incubated at room temperature for 10 min. After that, 500 ng supercoiled pBR322 plasmid DNA (ThermoFisher, Waltham, MA, USA) was added and then incubated at 37 °C for another 30 min. Finally, the reactions were stopped with a stopping solution (5% sodium dodecyl sulfate, 0.0025% bromophenol blue, and 25% glycerol), and the mixtures were applied onto 0.8% agarose gel and subjected to electrophoresis for 1.5 h in Tris-Acetate-EDTA buffer. After being stained with GelRed (Biotium, Fremont, CA, USA), the gel was imagined with the imaging system (Biotop, Shanghai, China). […] The band density of the supercoiled DNA was quantified by the ImageJ software (version 1.53a, National Institutes of Health, Bethesda, MD, USA), and the inhibition activity is expressed as the percentage inhibition and calculated by formula: Inhibition % = [(A − B)/(C − B)] × 100%, where A is the band density of the tested samples, B is the band density of the negative control, and C is the band density of the blank control.
# A549 = assay: SRB cytotoxicity assay, A549; format: cell-based; conditions: Homo sapiens, read-out: IC50 Cytotoxicity A549
# Text: as §1, §2
# HepG2 = assay: SRB cytotoxicity assay, HepG2; format: cell-based; conditions: Homo sapiens, read-out: IC50 Cytotoxicity HepG2
# Text: as §1, §2
# [1] = SRB cytotoxicity assay, hepatocyte HL-7702; format: cell-based, human
# Text: as §1, §2
# [2] = DLD-1, SRB assay, 48 h, mean ± SD
# [3] = HCT-116, SRB assay, 48 h, mean ± SD
# [4] = MDA-MB-231, SRB assay, 48 h, mean ± SD
# [5] = A549, SRB assay, 48 h, mean ± SD
# [6] = HepG2, SRB assay, 48 h, mean ± SD
# [7] = HL-7702 hepatocyte cell line, SRB assay, 48 h, human hepatocyte, mean ± SD, read-out: IC50 Cytotoxicity HL-7702
SMILES,IC50 (DNA Topo I) [µM],percentage inhibition on Topo I activity (DNA Topo I),inhibition at 400 µM (DNA Topo I) [%],IC50 (DLD-1; [2]) [µM],IC50 (HCT116; [3]) [µM],IC50 (MDA-MB-231; [4]) [µM],IC50 (A549; [5]) [µM],IC50 (HepG2; [6]) [µM],"IC50 at 48 h [1, 7] [µM]","IC50 (DLD-1; DLD-1, 48 h) [µM]","IC50 (HCT116; HCT-116, 48 h) [µM]","IC50 (MDA-MB-231; MDA-MB-231, 48 h) [µM]","IC50 (A549; A549, 48 h) [µM]","IC50 (HepG2; HepG2, 48 h) [µM]",IC50 at 48 h ([1]; human) [µM],"IC50 at 48 h ([1]; SRB assay, 48 h, human hepatocyte, mean ± SD, read-out: IC50 Cytotoxicity HL-7702) [µM]"
COc1ccc(-c2oc3cc(O[C@@H]4O[C@H](CO)[C@@H](O)[C@H](O)[C@H]4O)c(OC)c(O)c3c(=O)c2OC)cc1O [Compound 14],> 400,no inhibition,–,> 200,> 200,> 200,> 200,> 200,> 200,–,–,–,–,–,–,–
COc1c(O[C@@H]2O[C@H](CO)[C@@H](O)[C@H](O)[C@H]2O)cc2oc(-c3ccc(O)c(O)c3)c(OC)c(=O)c2c1O [Compound 12],> 400,–,26.4,> 200,> 200,> 200,> 200,> 200,> 200,–,–,–,–,–,–,–
COc1ccc([C@@H]2CC(=O)c3c(O)cc(O[C@@H]4O[C@H](CO)[C@@H](O)[C@H](O)[C@H]4O)cc3O2)cc1O [Compound 17],> 400,no inhibition,–,> 200,> 200,> 200,> 200,> 200,> 200,–,–,–,–,–,–,–
COc1ccc(-c2oc3c(O)c(OC)c(O[C@@H]4O[C@H](CO)[C@@H](O)[C@H](O)[C@H]4O)cc3c(=O)c2OC)cc1O [Compound 9],> 400,no inhibition,–,50.5 ± 0.31,87.7 ± 15.3,> 200,135 ± 32.3,> 200,126 ± 7.08,–,–,–,–,–,–,–
"O=c1cc(-c2ccc(O)c(O)c2)oc2cc(O)cc(O)c12 [Compound 15, luteolin]",89.9 ± 28.1,–,–,–,–,–,–,–,–,69.2 ± 4.04,31.7 ± 1.54,94.91 ± 0.5,93.9 ± 2.92,175 ± 16.6,> 200,–
CC#CC#CC#C/C=C/CCC(CCO)O[C@@H]1O[C@H](CO)[C@@H](O)[C@H](O)[C@H]1O (some centres unmarked) [Compound 25],> 400,–,–,–,–,–,–,–,–,187 ± 17.4,162 ± 15.8,> 200,174 ± 12.3,> 200,–,> 200
COc1cc(-c2oc3cc(O)c(OC)c(O)c3c(=O)c2O)ccc1O [Compound 8],190 ± 22.1,–,–,187 ± 48.6,> 200,> 200,178 ± 4.38,> 200,> 200,–,–,–,–,–,–,–
"COc1ccc(/C=C/C(=O)c2ccc(O[C@@H]3O[C@H](CO)[C@@H](O)[C@H](O)[C@H]3O)c(O[C@@H]3O[C@H](CO)[C@@H](O)[C@H](O)[C@H]3O)c2O)cc1O [Compound 1, 4-O-methylokanin 3′,4′-di-O-β-D-glucopyranoside]",394 ± 39,–,–,> 200,> 200,> 200,> 200,> 200,> 200,–,–,–,–,–,–,–
"CC[C@@]1(O)C(=O)OCc2c1cc1n(c2=O)Cc2cc3ccccc3nc2-1 [CPT, Camptothecin, reference compound]",–,–,–,17 ± 3.82,12.1 ± 5.74,20.4 ± 3.7,4.41 ± 1.11,1.71 ± 0.47,2.11,–,–,–,–,–,–,–
COc1cc(O)c2c(=O)c(OC)c(-c3ccc(O)c(O)c3)oc2c1 [Compound 4],> 400,no inhibition,–,7.14 ± 0.35,4.52 ± 0.04,> 200,8.16 ± 4.04,3.05 ± 1.31,19.6 ± 0.62,–,–,–,–,–,–,–
COc1ccc(/C=C/C(=O)c2ccc(O)c(O[C@@H]3O[C@H](CO)[C@@H](O)[C@H](O)[C@H]3O)c2O)cc1O [Compound 2],329 ± 58.8,–,–,> 200,> 200,> 200,> 200,> 200,> 200,–,–,–,–,–,–,–

# Continued, in another order:
IC50 (DNA Topo I) [µM],percentage inhibition on Topo I activity (DNA Topo I),inhibition at 400 µM (DNA Topo I) [%],SMILES,IC50 (DLD-1; [2]) [µM],IC50 (HCT116; [3]) [µM],IC50 (MDA-MB-231; [4]) [µM],IC50 (A549; [5]) [µM],IC50 (HepG2; [6]) [µM],"IC50 at 48 h [1, 7] [µM]","IC50 (DLD-1; DLD-1, 48 h) [µM]","IC50 (HCT116; HCT-116, 48 h) [µM]","IC50 (MDA-MB-231; MDA-MB-231, 48 h) [µM]","IC50 (A549; A549, 48 h) [µM]","IC50 (HepG2; HepG2, 48 h) [µM]",IC50 at 48 h ([1]; human) [µM],"IC50 at 48 h ([1]; SRB assay, 48 h, human hepatocyte, mean ± SD, read-out: IC50 Cytotoxicity HL-7702) [µM]"
> 400,–,15.2,CC#CC#CC#Cc1ccccc1 [Compound 23],123 ± 8.76,70.9 ± 3.73,140 ± 5.53,130 ± 4.93,168 ± 10.8,198.8 ± 0.86,–,–,–,–,–,–,–
> 400,–,–,CC#CC#CC#C/C=C/CCC(CO)O[C@@H]1O[C@H](CO)[C@@H](O)[C@H](O)[C@H]1O (some centres unmarked) [Compound 26],> 200,> 200,> 200,188 ± 15.8,> 200,> 200,–,–,–,–,–,–,–
47.5 ± 15.3,–,–,CC(=O)OC[C@H]1O[C@@H](Oc2ccc3c(c2O)O/C(=C\c2ccc(O)c(O)c2)C3=O)[C@H](O)[C@@H](O)[C@@H]1O [Compound 19],> 200,> 200,> 200,> 200,> 200,> 200,–,–,–,–,–,–,–
301 ± 34.9,–,–,"OC[C@H](O)CC#CC#Cc1ccc(O)cc1 [Compound 20, (R)-7-(4-hydroxyphenyl) hepta-4,6-diyne-1,2-diol]",> 200,174 ± 2.47,> 200,194 ± 12.8,> 200,> 200,–,–,–,–,–,–,–
> 400,–,23,OCC(O)CC#CC#Cc1ccccc1 (centres unmarked) [Compound 21],> 200,> 200,> 200,187 ± 6.63,> 200,> 200,–,–,–,–,–,–,–
> 400,–,46.7,O=C1/C(=C/c2ccc(O)c(O)c2)Oc2c1ccc(O[C@@H]1O[C@H](CO)[C@@H](O)[C@H](O)[C@H]1O)c2O [Compound 18],> 200,> 200,> 200,> 200,> 200,> 200,–,–,–,–,–,–,–
> 400,–,–,CC#CC#CC#CC#CCCC(CO)O[C@@H]1O[C@H](CO)[C@@H](O)[C@H](O)[C@H]1O (some centres unmarked) [Compound 27],144 ± 7.36,112 ± 6.59,164 ± 11.7,188 ± 14.9,> 200,> 200,–,–,–,–,–,–,–
> 400,–,–,C=C[C@H](O)[C@H](/C=C/C#CC#CC#CC)O[C@@H]1O[C@H](CO)[C@@H](O)[C@H](O)[C@H]1O [Compound 28],> 200,> 200,> 200,190 ± 12.1,> 200,> 200,–,–,–,–,–,–,–
